In US20200397817A1, “METHOD FOR PREDICTING AND MODULATING SUSCEPTIBILITY OF CANCER CELL TO PROGRAMMED CELL DEATH” (SHIEH, Darbin, priority 2017, published 2020):

What was measured:
[1] = tested on: ZVI sensitive OEC-M1 cells; experiment: Cell survival assay, ZVI@CMC NPs plus ROS scavenger, OEC-M1; type: cell-based; settings: 48 h, FIG. 4; for cell viability recovered as compared with ZVI@CMC NPs alone: ROS scavenger together with 5 μg/mL ZVI@CMC NPs
Experimental: (§1) Cytotoxicity of the ZVI NPs was evaluated by the MTT assay using 3-(4,5-dimethylthiazol-2-yl)-2,5-diphenyltetrazolium bromide. Log-phase OSCC cells were seeded at a density of 5000 cells per well in a 96-well culture plate and incubated for 16 h. The attached cells were then incubated with a series of concentrations of ZVI NPs for 48 h. Subsequently, culture medium of the cells were replaced by fresh complete medium contained 0.5 mg/mL of MTT and the cells were incubated at 37° C. for 1 h. After removing the medium, the resulting MTT crystals were dissolved in DMSO and measured for their optical absorbance at 550 nm to determine viability of the cells.
(§2) Additionally, various cell survival assays were conducted by incubating the cells with 5 μg/mL of ZVI@CMC NPs in combination with an iron chelator (eg. 1 μM of 1, 10-phenanthroline or 1 μM of desferoxamine (DFO)), a ROS scavenger (eg. 100 μM of vitamin C, 100 μM of vitamin E, 100 μM of TEMPOL, 5 μM of mito-lEMPOL, 100 μM Trolox, 100 μM Tiron, or 500 μM NAC), a ferroptosis inhibitor (eg. 5 μM of liproxstatin and 50 μM of ferrostatin) or a ferroptosis inducer (eg. 0.05 μM of RSL-3 or 1 μM of erastin) for 48 h.

ZVI refractory SAS cells = experiment: SAS tumor xenograft in SCID mice, tumor growth; type: in vivo; settings: 20 mg/kg RSL-3 together with 25 mg/kg ZVI@CMC NPs, tail vein, every other day x4; FIGS. 10B-10D
Source text: Six to eight week old male mice with severe combined immunodeficiency (SCID) were used as the hosts for OSCC tumor xenografts. 3×10^6 SAS cells were subcutaneously injected into the dorsal flank of the mice to establish tumor lesions. A visible tumor mass was normally observed 1.5 to 2 weeks after the injection. When the tumor size reached approximately 50 mm^3, the mice were randomly assigned to four groups, including a PBS control group, a RSL-3 treatment group, a ZVI@CMC NP treatment group and a ZVI@CMC NP+RSL-3 treatment group (n=4 per group). PBS solution, 20 mg/kg of RSL-3 and 25 mg/kg of ZVI@CMC NPs were individually administered to the mice through tail vein injection once every other day for four times before the final tumor size in every group was measured. The Tumor volumes were measured by a digital caliper and calculated using the formula: […].

ZVI refractory cells = experiment: Depolarized cells, ZVI@CMC NPs plus ferroptosis inducer, refractory cells; type: cell-based; settings: ferroptosis inducer with ZVI@CMC NPs; FIG. 10A
[2] = tested on: ZVI refractory HSC-3, SAS and OEC-M1 R3 cells; experiment: Cell survival assay, ZVI@CMC NPs plus ferroptosis inducer, refractory cells; type: cell-based; settings: ferroptosis inducer in combination with 5 μg/mL ZVI@CMC NPs, 48 h; FIG. 10A
Experimental: as §1, §2

[3] = tested on: ZVI sensitive cells OEC-M1 and SCC-9; experiment: Cell survival assay, ZVI@CMC NPs plus co-agent, OEC-M1 and SCC-9; settings: added to 5 μg/mL ZVI@CMC NPs, 48 h; FIG. 7B
Experimental: as §1, §2

[4] = tested on: ZVI sensitive SCC-9 and OEC-M1 cell lines; experiment: Mitochondrial membrane potential (MitoTracker flow cytometry), sensitive lines; type: cell-based; settings: added to ZVI@CMC NPs; FIG. 7C
Experimental: Depolarization of the ZVI NP treated cells was assessed by double staining with 50 nM of MitoTracker Green, a commercial dye for indicating total mitochondrial mass, and 100 nM of MitoTracker Deep Red, another commercial dye for indicating mitochondria membrane potential (ΔΨ), at 37° C. for 30 min, followed by analysis of red fluorescent signals under an excitation wavelength of 644 nm and an emission wavelength of 665 nm and green fluorescent signals under an excitation wavelength of 490 nm and an emission wavelength of 516 nm by a BD Canto II Flow Cytometer.

CC(=O)N[C@@H](CS)C(=O)O [NAC, N-acetylcysteine]
effect of co-agent on cytotoxicity of ZVI@CMC NPs ([1]; cotreatment with 5 μg/mL ZVI@CMC NPs): reduce cytotoxicity

COC(=O)c1ccc([C@H]2c3[nH]c4ccccc4c3C[C@H](C(=O)OC)N2C(=O)CCl)cc1 [RSL-3, methyl (1S,3R)-2-(2-chloroacetyl)-1-(4-methoxycarbonylphenyl)-1,3,4,9-tetrahydropyrido[3,4-b]indole-3-carboxylate]
tumor growth as compared to ZVI@CMC NPs or RSL-3 alone (ZVI refractory SAS cells): significantly delayed | percentage of depolarized cells (ZVI refractory cells): dramatically increased | cell viability as compared with ZVI@CMC NPs alone [2]: significantly reduced

CC1(C)CC(O)CC(C)(C)N1[O] [TEMPOL, 4-hydroxy-2,2,6,6-tetramethylpiperidin-1-oxyl]
cell viability recovered as compared with ZVI@CMC NPs alone [1]: about 50%

O=S(=O)([O-])c1cc(O)c(O)c(S(=O)(=O)[O-])c1.[Na+].[Na+] [Tiron, disodium 4,5-dihydroxy-1,3-benzenedisulfonate]
cell viability recovered as compared with ZVI@CMC NPs alone [1]: about 50%

Cc1c(C)c2c(c(C)c1O)CCC(C)(C(=O)O)O2 (stereo not shown) [Trolox, 6-Hydroxy-2,5,7,8-tetramethylchroman-2-carboxylic acid]
cell viability recovered as compared with ZVI@CMC NPs alone [1]: about 50%

CCOc1ccccc1-n1c(C(C)N2CCN(C(=O)COc3ccc(Cl)cc3)CC2)nc2ccccc2c1=O (stereo not shown) [erastin, 2-[1-[4-[2-(4-chlorophenoxy)acetyl]piperazin-1-yl]ethyl]-3-(2-ethoxyphenyl)quinazolin-4-one]
percentage of depolarized cells (ZVI refractory cells): dramatically increased | cell viability as compared with ZVI@CMC NPs alone [2]: significantly reduced

CCOC(=O)c1ccc(NC2CCCCC2)c(N)c1 [ferrostatin]
recovery of cell viability of ZVI@CMC NP treated cells [3]: ~50% | percentage of depolarized cells caused by ZVI@CMC NP induced mitochondrial hyperoxidation [4]: reduce the percentage of depolarized cells

Clc1cccc(CN=C2Nc3ccccc3NC23CCNCC3)c1 [liproxstatin]
recovery of cell viability of ZVI@CMC NP treated cells [3]: ~50% | percentage of depolarized cells caused by ZVI@CMC NP induced mitochondrial hyperoxidation [4]: reduce the percentage of depolarized cells
